Source: patent US5330990A, “Substituted urea compounds and their preparation and use” (Novo Nordisk A/S, priority 1989, dated 1994)
Counter-ions that a name gives are not always drawn.

target: T1, 5-HT3 receptor (Cavia porcellus, UniProt O70212); assay: 5HT3-antagonist activity: inhibition of 5-HT-induced contractions of isolated guinea pig ileum in the presence of methysergide; type: cell-based; details: not given
T1 construct: from tissue; host or cells: guinea pig isolated ileum (terminal 15 cm)
T1 sequence (O70212 20-490): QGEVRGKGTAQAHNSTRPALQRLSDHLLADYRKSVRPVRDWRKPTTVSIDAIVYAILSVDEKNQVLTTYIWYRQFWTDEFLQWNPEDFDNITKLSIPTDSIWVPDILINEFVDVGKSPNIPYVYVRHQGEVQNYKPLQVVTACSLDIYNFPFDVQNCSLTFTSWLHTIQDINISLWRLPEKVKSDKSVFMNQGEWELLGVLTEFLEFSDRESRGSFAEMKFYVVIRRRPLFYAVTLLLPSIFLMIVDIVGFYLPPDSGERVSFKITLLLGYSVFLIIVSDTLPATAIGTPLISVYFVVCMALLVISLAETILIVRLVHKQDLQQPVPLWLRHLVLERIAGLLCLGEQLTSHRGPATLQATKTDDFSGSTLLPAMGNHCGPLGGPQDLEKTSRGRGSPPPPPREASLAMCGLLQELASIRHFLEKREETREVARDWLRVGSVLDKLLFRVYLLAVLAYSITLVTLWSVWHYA
Method: Compounds of formula (I) were tested for their 5HT3 -antagonist activity using the following method:
5-HT produces contractions of the guinea pig ileum via 2 different receptors. 1) direct contractions via 5-HT2 receptors on the muscle, 2) indirect contractions via 5-HT3 recaptots on intrinsic gut neurones, producing acetylcholine release. By administering 5-HT to lengths of ileum in the presence of methysergide (to block 5-HT2 receptors) you can assay 5-HT3 receptor activity.
Guinea pigs were killed by means of cervical dislocation the terminal 15 cm of ileum removed, and 1.5-2.0 cm lengths prepared and mounted in 10 ml organ baths containing calcium deficient tyrodes of the following composition (mM) NaCl (136.9); KCl (2.68); CaCl2 (0.9); MgCl2 (1.05); NaCO3 (11.9); NaH2 PO4 (0.42); glucose (5.55) and containing methysergide (10^-6 M) maintained at 37° C. and gassed with 95% O2 and 5% CO2. The mechanical activity of the muscle was measured by a HSE 351 isometric transducer connected via a HSE bridge amplifier to a potentiometric pen recorder. Resting tension was 1 g and the tissue left to equilibrate for 1 hour.
First a dose response curve is obtained to acetylcholine on each tissue. Then one tissue is incubated for 20 min with tyrode and three with tyrode plus the putative 5-HT3 antagonist. After this incubation dose response curves to 5-HT are constructed to 5-HT in all 4 tissues (one control 3+test drug). Contact time for 5-HT 30 sec.
The maximum response to acetylcholine for each tissue is measured and the responses to 5-HT calculated as percentage maximum of the acetylcholine (Ach) maximum response in that tissue. The peak of the 5-HT response is measured.
For each tissue the concentration of 5-HT giving 100% of the maximum acetylcholine response (measured at 30 sac) is quoted.
The effect of a drug is quantified as the ratio of the concentration of 5-HT producing a 100% maximal Ach response in the presence and absence of the antagonist (dose ratio). The figure quoted is the concentration of the antagonist giving a dose ratio of 2, (A2).

| Structure (SMILES) | Kb [nM] |
| --- | --- |
| O=C(Nc1ccccc1-c1nc(C2CC2)no1)NC1CN2CCC1CC2 (stereo not drawn) [Example 10, N-(2-(3-Cyclopropyl-1,2,4-oxadiazol-5-yl)-phenyl)-N^1-(3-quinuclidinyl)urea] | 283 |

same assay, conditions: guinea pig ileum; methysergide 10^-6 M; 37° C.; 20 min incubation with antagonist; 5-HT contact time 30 sec; dose ratio at 100% maximal Ach response; read-out: A2 (concentration of the antagonist giving a dose ratio of 2) (converted)

| Structure (SMILES) | Kb [nM] |
| --- | --- |
| CON=Cc1ccccc1NC(=O)N[C@H]1C[C@H]2CCC[C@@H](C1)N2C [Example 18, N-(2-(N-Methoxyiminomethyl)phenyl)-N^1-(endo-9-methyl-9-azabicyclo[3.3.1]non-3-yl)urea] | 36.3 |
| CN1[C@@H]2CC[C@H]1C[C@@H](NC(=O)Nc1ccccc1C=NOCC1CC1)C2 [Example 15, N-(Endo-8-methyl-8-azabicyclo[3.2.1]oct-3-yl)-N^1-(2-(N-cyclo-propylmethoxyiminomethyl)phenyl)urea, HCl] | 5.05 |
| Cc1noc(-c2ccccc2NC(=O)N[C@H]2C[C@H]3CC[C@@H](C2)N3C)n1 [Example 6, N-(Endo-8-methyl-8-azabicyclo[3.2.1]oct-3-yl) -N^1-(2-(3-methyl-1,2,4-oxadiazol-5-yl)-phenyl)urea, HCl] | 293 |
| CN1[C@@H]2CCC[C@H]1C[C@@H](NC(=O)Nc1ccccc1-c1nc(-c3ccccc3)no1)C2 [Example 11, N-(Endo-9-methyl-9-azabicyclo[3.3.1]non-3-yl)-N ^1-(2-(3-phenyl-1,2,4-oxadiazol-5-yl)phenyl)urea] | 24 |
| CCON=Cc1ccccc1NC(=O)N[C@H]1C[C@H]2CC[C@@H](C1)N2C [Example 16, N-(Endo-8-methyl-8-azabicyclo[3.2.1]oct-3-yl)-N^1-(2-(N-ethoxyiminomethyl)phenyl)urea, HCl] | 36.3 |
| CN1[C@@H]2CC[C@H]1C[C@@H](NC(=O)Nc1ccccc1-c1nc(C3CC3)no1)C2 [Example 5, N-(2-(3-Cyclopropyl-1,2,4-oxadiazol-5-yl)phenyl)-N^1-(endo-8-methyl-8-azabicyclo[3.2.1]oct-3-yl)urea HCl] | 43.5 |
| CCCCc1noc(-c2ccccc2NC(=O)N[C@H]2C[C@H]3CC[C@@H](C2)N3C)n1 [Example 7, N-(2-(3-Butyl-1,2,4-oxadiazol-5-yl)phenyl)-N^1-(endo-8-methyl-8-azabicyclo[3.2.1]oct-3-yl)urea, (CO2 H)2] | 13 |
| CN1[C@@H]2CCC[C@H]1C[C@@H](NC(=O)Nc1ccccc1-c1nc(C3CC3)no1)C2 [Example 8, N-(2-(3-Cyclopropyl-1,2,4-oxadiazol-5-yl)-phenyl)-N^1-(endo-9-methyl-9-azabicyclo[3.3.1]non-3-yl)urea, HCl] | 3.41 |
